Like-named read-outs stand apart in the source and are kept apart here.
Key:
[1] = test system: Key Broadleaf Weed and Crop Species; test: Post-emergent Test II herbicidal activity (Table 5); type: in vivo; settings: post-emergence, 336 h, post-emergent, 14 days after application; for pest or weed control at 70 g/ha: 70 g ai/ha; for pest or weed control at 140 g/ha: 140 g ai/ha
How it was run: (§1)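 Scoring: visual, 0–100% injury at 14 d versus untreated. Treatment: overhead track spray, 187 L/ha, onto plants at the first–second true leaf stage. Growth: greenhouse, ~15 h light, 23–29 °C day, 22–28 °C night.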

[2] = test system: Key Grass and Sedge Weeds as well as Grass Crops; test: Post-emergent Test II herbicidal activity (Table 6); type: in vivo; settings: post-emergence, 336 h; for pest or weed control at 70 g/ha: application rate 70 g ai/ha; for pest or weed control at 140 g/ha: application rate 140 g ai/ha
How it was run: as §1

[3] = ABUTH: velvetleaf (Abutilon theophrasti), read-out: Visual Growth Reduction (%) 14 Days After Application ABUTH
[4] = AMARE: redroot pigweed (Amaranthus retroflexus), read-out: Visual Growth Reduction (%) 14 Days After Application AMARE
[5] = BRSNN: oilseed-rape, canola (Brassica napus), read-out: Visual Growth Reduction (%) 14 Days After Application BRSNN
[6] = CHEAL: lambsquarters (Chenopodium album), read-out: Visual Growth Reduction (%) 14 Days After Application CHEAL
[7] = EPHHL: wild poinsettia (Euphorbia heterophylla), read-out: Visual Growth Reduction (%) 14 Days After Application EPHHL
[8] = HELAN: sunflower (Helianthus annuus), read-out: Visual Growth Reduction (%) 14 Days After Application HELAN
[9] = VIOTR: wild pansy (Viola tricolor), read-out: Visual Growth Reduction (%) 14 Days After Application VIOTR
[10] = Triticum aestivum, TRZSS (wheat), read-out: Visual Growth Reduction (%) 14 Days After Application, TRZSS
[11] = CYPES: yellow nutsedge (Cyperus esculentus), read-out: Visual Growth Reduction (%) 14 Days After Application, CYPES
[12] = DIGSA: crabgrass (Digitaria sanguinalis), read-out: Visual Growth Reduction (%) 14 Days After Application, DIGSA
[13] = ECHCG: barnyardgrass (Echinochloa crus-galli), read-out: Visual Growth Reduction (%) 14 Days After Application, ECHCG
[14] = ORYSA: rice (Oryza sativa), read-out: Visual Growth Reduction (%) 14 Days After Application, ORYSA
[15] = SETFA: giant foxtail (Setaria faberi), read-out: Visual Growth Reduction (%) 14 Days After Application, SETFA
[16] = SORVU: grain sorghum (Sorghum vulgare), read-out: Visual Growth Reduction (%) 14 Days After Application, SORVU
[17] = ZEAMX: maize, corn (Zea mays), read-out: Visual Growth Reduction (%) 14 Days After Application, ZEAMX

SMILES	melting point [°C]	pest or weed control at 70 g/ha [1, 3] [%]	pest or weed control at 140 g/ha [1, 3] [%]	pest or weed control at 70 g/ha [1, 4] [%]	pest or weed control at 140 g/ha [1, 4] [%]	pest or weed control at 70 g/ha [1, 5] [%]	pest or weed control at 140 g/ha [1, 5] [%]	pest or weed control at 70 g/ha [1, 6] [%]	pest or weed control at 140 g/ha [1, 6] [%]	pest or weed control at 70 g/ha [1, 7] [%]	pest or weed control at 140 g/ha [1, 7] [%]	pest or weed control at 70 g/ha [1, 8] [%]	pest or weed control at 140 g/ha [1, 8] [%]	pest or weed control at 70 g/ha [1, 9] [%]	pest or weed control at 140 g/ha [1, 9] [%]	pest or weed control at 70 g/ha [2, 10] [%]	pest or weed control at 140 g/ha [2, 10] [%]	pest or weed control at 70 g/ha [2, 11] [%]	pest or weed control at 140 g/ha [2, 11] [%]	pest or weed control at 70 g/ha [2, 12] [%]	also measured
COC(=O)c1nc(-c2cc(F)c(I)cc2F)cc(N)c1Cl [Compound 56]	142 to 144	95 to 100	95 to 100	95 to 100	95 to 100	85 to 94	85 to 94	95 to 100	95 to 100	95 to 100	95 to 100	75 to 84	85 to 94	95 to 100	95 to 100	60 to 74	60 to 74	95 to 100	95 to 100	75 to 84	pest or weed control at 140 g/ha [2, 12]: 85 to 94%; pest or weed control at 70 g/ha [2, 13]: 95 to 100%; pest or weed control at 140 g/ha [2, 13]: 95 to 100%; pest or weed control at 70 g/ha [2, 14]: 0 to 29%; pest or weed control at 140 g/ha [2, 14]: 0 to 29%; pest or weed control at 70 g/ha [2, 15]: 95 to 100%; pest or weed control at 140 g/ha [2, 15]: 95 to 100%; pest or weed control at 70 g/ha [2, 16]: 75 to 84%; pest or weed control at 140 g/ha [2, 16]: 85 to 94%; pest or weed control at 70 g/ha [2, 17]: 85 to 94%; pest or weed control at 140 g/ha [2, 17]: 85 to 94%
COC(=O)c1nc(-c2ccc(Br)cc2)c(Cl)c(N)c1Cl [Compound 47]	159.6 to 161.1	95 to 100	95 to 100	95 to 100	95 to 100	95 to 100	95 to 100	95 to 100	95 to 100	85 to 94	95 to 100	95 to 100	95 to 100	0 to 29	0 to 29	45 to 59	45 to 59	85 to 94	95 to 100	75 to 84	pest or weed control at 140 g/ha [2, 12]: 75 to 84%; pest or weed control at 70 g/ha [2, 13]: 85 to 94%; pest or weed control at 140 g/ha [2, 13]: 85 to 94%; pest or weed control at 70 g/ha [2, 14]: 0 to 29%; pest or weed control at 140 g/ha [2, 14]: 0 to 29%; pest or weed control at 70 g/ha [2, 15]: 85 to 94%; pest or weed control at 140 g/ha [2, 15]: 95 to 100%; pest or weed control at 70 g/ha [2, 16]: 85 to 94%; pest or weed control at 140 g/ha [2, 16]: 85 to 94%; pest or weed control at 70 g/ha [2, 17]: 85 to 94%; pest or weed control at 140 g/ha [2, 17]: 85 to 94%
Cc1c(-c2ccc(OC(F)F)cc2)nc(C(=O)O)c(Cl)c1N [Compound 94, 4-Amino-3-chloro-6-(4-(difluoromethoxy)phenyl)-5-methylpicolinic acid]	158.5 to 159.5	0 to 29	0 to 29	0 to 29	45 to 59	0 to 29	0 to 29	85 to 94	85 to 94	0 to 29	0 to 29	85 to 94	85 to 94	0 to 29	0 to 29	0 to 29	0 to 29	0 to 29	0 to 29	0 to 29	pest or weed control at 140 g/ha [2, 12]: 0 to 29%; pest or weed control at 70 g/ha [2, 13]: 0 to 29%; pest or weed control at 140 g/ha [2, 13]: 0 to 29%; pest or weed control at 70 g/ha [2, 14]: 0 to 29%; pest or weed control at 140 g/ha [2, 14]: 0 to 29%; pest or weed control at 70 g/ha [2, 15]: 0 to 29%; pest or weed control at 140 g/ha [2, 15]: 0 to 29%; pest or weed control at 70 g/ha [2, 16]: 0 to 29%; pest or weed control at 140 g/ha [2, 16]: 0 to 29%; pest or weed control at 70 g/ha [2, 17]: 0 to 29%; pest or weed control at 140 g/ha [2, 17]: 0 to 29%

From US9113629B2, “4-amino-6-(4-substituted-phenyl)-picolinates and 6-amino-2-(4-substituted-phenyl)-pyrimidine-4-carboxylates and their use as herbicides” (DOW AGROSCIENCES LLC, priority 2013, dated 2015)
